Source: EP3024823B1, “INTERCALATING AMINO ACIDS” (priority 2013, dated 2015)
Converted amounts (≈) assume the structure as drawn.

Experiments:
PylRS_AF = target: T1, PylRS_AF (Methanosarcina mazei, UniProt Q8PWY1, Y306A/Y384F); test: PylRS_AF-mediated amber suppression in GFP-Y39TAG (GFP expression in E. coli); assay type: cell-based; conditions: for efficiency and accuracy of incorporation into peptides: Figure 2, whole cell fluorescence; for GFP expression, SDS PAGE of Ni-NTA-purified GFP / yield of purified GFP-Y39→ncAA / expression of full-length GFP by cellular fluorescence: E. coli; for GFP expression, SDS PAGE of Ni-NTA-purified GFP: pREP-PylRS_AF, pBAD_GFP-Y39TAG; for yield of purified GFP-Y39→ncAA / expression of full-length GFP by cellular fluorescence: PylRS_AF
T1 construct: expressed in transfected cells
Source text: (§1) Protein Expression and Purification. All proteins were expressed from pBAD vectors and purified using a C-terminal His6 tag. For expression of proteins containing ncAA, E. coli cells were co-transformed with pBAD plasmid containing the target gene with amber codon (pBAD_GFP-39TAG, pBAD_TRX-R74-His6_TAG, pBAD_CmodC or pBAD_TAT, all conferring ampicillin resistance) and a plasmid coding for the respective PylRS mutant and tRNA^Pyl (pEVOL_PylRS_AF, pREP_PylRS_wt, _GF, _AF and PylRS_AF single or double alanine mutants). A single clone was picked and grown in Luria Broth (LB) media supplemented with suited antibiotics at 37 °C and 200 rpm shaking. 0.1 ml of this culture was used to inoculate 5 ml LB supplemented with the same antibiotics and different concentrations of the ncAA. The culture was incubated at 37 °C and 200 rpm shaking until OD600 of ∼0.4 - 0.6 and protein expression was induced with 0.02% (w/v) L-arabinose. The culture was harvested after 4 - 6 h of incubation by centrifugation (10 min, 3320 x g, room temperature). The pellet was lysed with B-Per lysis reagent (Thermo scientific) containing 1x Complete (-EDTA) protease inhibitor cocktail (Roche) and shaking at room temperature at 1400 rpm for 30 min. The suspension was pelleted by centrifugation (5 min, 20817 x g, room temperature) the supernatant was extracted with Ni-NTA agarose slurry (Qiagen) at an imidazole concentration of 10 mM by shaking at room temperature. The beads were washed with 350 µl 4x PBS and or two wash buffers (50 mM NaH2PO4, 300 mM NaCl, pH = 8.0, containing 20 - 50 mM imidazole). Proteins were eluted with elution buffer (50 mM NaH2PO4, 300 mM NaCl, pH = 8.0, containing 500 mM imidazole). For GFP-TAT protein containing ncAA 6, expressions were carried out in BL21 (DE3) gold and purification was conducted as above, but under denaturing conditions (8 M urea). Protein was refolded by stepwise dialysis against 20 mM Tris-HCl, pH = 8.0, 10 % glycerole with decreasing urea concentrations. Purity of the obtained proteins was analyzed by SDS PAGE and staining with Gelcode blue (Thermo Scientific) and quantified using a BCA assay (Pierce, Thermo Scientific). For GFP yield determination based on whole cell fluorescence, cell pellets from 3 ml expressions were washed twice with 3 ml 4x PBS (by centrifugation for 10 min at 3320 x g at room temperature and resuspension) and fluorescence was determined using a Tecan M200 plate reader using and excitation wavelength of 475 nm and an emission wavelength of 510 nm. Fluorescence values were corrected for cell densities based on OD600 - measurements. Generally, expressions were carried out in E. coli Top10 using carbenicillin selection for pEVOL plasmids and tetracyclin selection for pREP plasmids. Wild type thioredoxin and TRX-R74→6 were expressed in E. coli BL21 (DE3) gold cells. Expressed C-terminal fragment of PylRS_AF (aa 188-454) was stored in 10 mM HEPES-Na+, pH = 7.5, 5 mM MgCl2, 300 mM NaCl at -80 °C before use.
Next, the tRNA^Pyl/PylRS pair of Methanosarcina mazei was analyzed for its capability to mediate the selective incorporation of ncAA 3 into proteins in E. coli in response to the amber codon, TAG. E. coli were co-transformed with plasmids pEVOL-PylRS_wt (encoding wild type M. mazei PylRS and tRNA^Pyl) and pBAD_GFP-39TAG (encoding GFP with an amber mutation at position Y39 and a C-terminal His6 tag) and the culture induced with L-arabinose in the presence or absence of 1 mM ncAA 3 or Nε-(tert-butyloxycarbonyl)-L-lysine (Boc-Lys, ncAA 2), which is an efficiently processed substrate of PylRS_wt. However, expression of full-length GFP was only detected for ncAA 2 by cellular fluorescence. […] Among amino acids that constitute the methyl-pyrroline binding pocket of PylRS, Y306 is a main component of the rear part and plays a critical role in discriminating against larger, Nε-carbamate-linked lysine derivatives. […]

PylRS_wt = target: T2, PylRS_wt (Methanosarcina mazei, UniProt Q8PWY1); test: PylRS_wt-mediated amber suppression in GFP-Y39TAG (GFP expression in E. coli); assay type: cell-based; conditions: for expression of full-length GFP by cellular fluorescence: pEVOL-PylRS_wt, pBAD_GFP-39TAG, 1 mM ncAA; for GFP expression, SDS PAGE of Ni-NTA-purified GFP: pREP-PylRS_wt, pBAD_GFP-Y39TAG
T2 construct: expressed in transfected cells
Source text: as §1, with “Protein was refolded by stepwise dialysis against 20 mM Tris-HCl, pH = 8.0, 10 % glycerole with decreasing urea concentrations.” left out, “Generally, expressions were carried out in E. coli Top10 using carbenicillin selection for pEVOL plasmids and tetracyclin selection for pREP plasmids. Wild type thioredoxin and TRX-R74→6 were expressed in E. coli BL21 (DE3) gold cells. Expressed C-terminal fragment of PylRS_AF (aa 188-454) was stored in 10 mM HEPES-Na+, pH = 7.5, 5 mM MgCl2, 300 mM NaCl at -80 °C before use.” left out
Next, the tRNA^Pyl/PylRS pair of Methanosarcina mazei was analyzed for its capability to mediate the selective incorporation of ncAA 3 into proteins in E. coli in response to the amber codon, TAG. […] However, expression of full-length GFP was only detected for ncAA 2 by cellular fluorescence. […]

PylRS_AF_L407A = target: T3, PylRS_AF_L407A (Methanosarcina mazei, UniProt Q8PWY1, L407A/Y306A/Y384F); test: PylRS_AF L407A-mediated amber suppression in GFP-Y39TAG (cellular GFP expression in E. coli); assay type: cell-based; conditions: pREP_PylRS_AF_L407A, pBAD_GFP-39TAG
T3 construct: expressed in transfected cells
Source text: (§2) Protein Expression and Purification. All proteins were expressed from pBAD vectors and purified using a C-terminal His6 tag. For expression of proteins containing ncAA, E. coli cells were co-transformed with pBAD plasmid containing the target gene with amber codon (pBAD_GFP-39TAG, pBAD_TRX-R74-His6_TAG, pBAD_CmodC or pBAD_TAT, all conferring ampicillin resistance) and a plasmid coding for the respective PylRS mutant and tRNA^Pyl (pEVOL_PylRS_AF, pREP_PylRS_wt, _GF, _AF and PylRS_AF single or double alanine mutants). A single clone was picked and grown in Luria Broth (LB) media supplemented with suited antibiotics at 37 °C and 200 rpm shaking. 0.1 ml of this culture was used to inoculate 5 ml LB supplemented with the same antibiotics and different concentrations of the ncAA. […] Purity of the obtained proteins was analyzed by SDS PAGE and staining with Gelcode blue (Thermo Scientific) and quantified using a BCA assay (Pierce, Thermo Scientific). For GFP yield determination based on whole cell fluorescence, cell pellets from 3 ml expressions were washed twice with 3 ml 4x PBS (by centrifugation for 10 min at 3320 x g at room temperature and resuspension) and fluorescence was determined using a Tecan M200 plate reader using and excitation wavelength of 475 nm and an emission wavelength of 510 nm. Fluorescence values were corrected for cell densities based on OD600 - measurements. […]

PylRS_AF_D408A = target: T4, PylRS_AF_D408A (Methanosarcina mazei, UniProt Q8PWY1, D408A/Y306A/Y384F); test: PylRS_AF D408A-mediated amber suppression in GFP-Y39TAG (cellular GFP expression in E. coli); assay type: cell-based; conditions: pREP_PylRS_AF_D408A, pBAD_GFP-39TAG
T4 construct: expressed in transfected cells
Source text: as §2

PylRS_GF = target: T5, PylRS_GF (Methanosarcina mazei, UniProt Q8PWY1, Y306G/Y384F); test: PylRS_GF-mediated amber suppression in GFP-Y39TAG (GFP expression in E. coli); assay type: cell-based; conditions: pREP-PylRS_GF (Y306G), pBAD_GFP-Y39TAG
T5 construct: expressed in transfected cells
Source text: as §2

Solubility of the ncAA = assay type: physicochemical; conditions: limited solubility
[1] = pBAD_GFP-39TAG, 1 mM ncAA, non-optimized conditions

T2 sequence (Q8PWY1 whole entry): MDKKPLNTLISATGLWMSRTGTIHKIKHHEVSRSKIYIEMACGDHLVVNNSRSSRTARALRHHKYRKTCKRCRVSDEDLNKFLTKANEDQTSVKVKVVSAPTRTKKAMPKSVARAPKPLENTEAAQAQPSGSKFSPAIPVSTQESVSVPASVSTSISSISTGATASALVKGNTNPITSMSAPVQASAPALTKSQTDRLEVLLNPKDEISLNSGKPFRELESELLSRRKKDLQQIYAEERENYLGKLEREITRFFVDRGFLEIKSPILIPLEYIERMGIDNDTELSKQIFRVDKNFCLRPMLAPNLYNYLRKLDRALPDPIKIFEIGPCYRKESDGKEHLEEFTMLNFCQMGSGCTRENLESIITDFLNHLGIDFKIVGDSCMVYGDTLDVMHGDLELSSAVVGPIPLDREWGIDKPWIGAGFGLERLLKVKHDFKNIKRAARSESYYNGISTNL
T1 sequence (Q8PWY1 whole entry Y306A/Y384F): as the sequence (Q8PWY1 whole entry) above, with Y306A, Y384F counted along it
T4 sequence (Q8PWY1 whole entry Y306A/Y384F/D408A): as the sequence (Q8PWY1 whole entry) above, with Y306A, Y384F, D408A counted along it
T5 sequence (Q8PWY1 whole entry Y306G/Y384F): as the sequence (Q8PWY1 whole entry) above, with Y306G, Y384F counted along it
T3 sequence (Q8PWY1 whole entry Y306A/Y384F/L407A): as the sequence (Q8PWY1 whole entry) above, with Y306A, Y384F, L407A counted along it

In the case of “(S)-2-amino-6-(((benzo[h]quinolin-2-ylmethoxy)carbonyl)amino) hexanoic acid [ncAA 8]”, the “efficiency and accuracy of incorporation into peptides” value (PylRS_AF) is reported as “best results”.
For `CC(C)(C)OC(=O)NCCCC[C@H](N)C(=O)O` [ncAA 2, Nε-(tert-butyloxycarbonyl)-L-lysine, reference compound], the “expression of full-length GFP by cellular fluorescence” value (“expression of full-length GFP” for short) (PylRS_wt) was “detected”, the “cellular GFP expression” value (PylRS_AF_L407A) was “significant levels” and the “GFP expression, SDS PAGE of Ni-NTA-purified GFP” value (from here on “GFP expression, SDS PAGE”) (PylRS_AF) was “significant expression”. For the same molecule, the “cellular GFP expression” value (PylRS_AF_D408A) was “significant levels” and the “GFP expression, SDS PAGE” value (PylRS_GF) was “significant expression”.
In the case of `N[C@@H](CCCCNC(=O)c1cc2ccccc2cn1)C(=O)O` [ncAA 6, Nε-(isoquinoline-3-carbonyl)-L-lysine], the “yield of purified GFP-Y39→ncAA” value (PylRS_AF; [1]) is reported as 1.4 mg/L and the “efficiency and accuracy of incorporation into peptides” value (PylRS_AF) is reported as “best results”.
For `N[C@@H](CCCCNC(=O)c1ccc2ccccc2c1)C(=O)O` [ncAA 7, Nε-(naphtalene-2-carbonyl)-L-lysine], the “expression of full-length GFP” value (PylRS_AF; pBAD_GFP-39TAG) was “no expression” and the solubility (Solubility of the ncAA) was ~100 µM (≈ 30 µg/mL).
For `N[C@@H](CCCCNC(=O)c1nc2ccccc2nc1O)C(=O)O` [Nε-(2-hydroxyquinoxaline-3-carbonyl)-L-lysine], the “expression of full-length GFP” value (PylRS_AF; pBAD_GFP-39TAG) was “no significant fluorescence increase compared to background”.
For `N[C@@H](CCCCNC(=O)c1cnc2ccccc2n1)C(=O)O` [ncAA 3, Nε-(quinoxaline-2-carbonyl)-L-lysine], the “expression of full-length GFP” value (PylRS_wt) was “failure of amber suppression”, the “GFP expression, SDS PAGE” value (PylRS_wt) was “not recognized” and the “yield of purified GFP-Y39→ncAA” value (PylRS_AF; [1]) was 1.4 mg/L.
With `N[C@@H](CCCCNC(=O)c1ccc2ccccc2n1)C(=O)O` [ncAA 5, Nε-(quinoline-2-carbonyl)-L-lysine] the “GFP expression, SDS PAGE” value (PylRS_wt) was “not recognized”, the “cellular GFP expression” value (PylRS_AF_L407A) was “significant levels” and the “yield of purified GFP-Y39→ncAA” value (PylRS_AF; standard expression conditions) was > 11 mg/L. For the same molecule, the “yield of purified GFP-Y39→ncAA” value (PylRS_AF; [1]) was 4.5 mg/L, the “GFP expression, SDS PAGE” value (PylRS_AF) was “significant expression” and the “cellular GFP expression” value (PylRS_AF_D408A) was “significant levels”. The “GFP expression, SDS PAGE” value (PylRS_GF) was “significant expression”.
